Literature values as cited in US9925191B2, “Fumarate compounds, pharmaceutical compositions thereof, and methods of use” (priority 2015, dated 2018).

- aqueous solubility: poor aqueous solubility
SMILES: COC(=O)/C=C/C(=O)OC [DMF, dimethylfumarate]
